The source of these data is US9709557B2, “Anthraquinone based near IR emitting compounds and uses thereof” (LIFE TECHNOLOGIES CORPORATION, priority 2008, dated 2017).

In data set [1] the test system is Live Jurkat cells. Put plainly: DNA staining of live cells (diluted samples), cell cycle analysis by flow cytometry (Example 38). The data set is classed as cell-based, human. How it is done: Aliquots of a compound of the invention (e.g., Compound 9 or a salt thereof) are diluted to a concentration of 5 mM in de-ionized water (DI) or in DMSO. Live Jurkat cells are suspended at 5×10^5 cells/ml in each RPMI media with 10% FBS. Compound from each solution (DI and DMSO) is added to each of one mL cell suspensions at a concentration 5 μM and then incubated at 37° C. for 30 minutes while protected from light. Cells are run through a Becton Dickinson (BD) LSRII Flow Cytometer. Forward Scatter (FS) versus Side Scatter (SS) dual parameter plot is used to gate main cell population. Fluorescence is collected using two lasers: the 488 nm excitation laser with 695/40, and 780/60 bandpass emission filter, and using the 633 nm excitation laser with 780/60, 710/50, and 660/20 bandpass emission filters. Fluorescence is also collected with the 488 nm laser and the 530/30 and 575/26 bandpass emission filters to observe for any fluorescence spillover in these detectors. Collection of at least 10,000 events is performed at a flow rate of ˜200 events/second. The data is analyzed to evaluate the ratio of G2/G1 and the % CV of G1 phase, as described herein. Compound 9 was evaluated using the described procedures and was effective as a DNA stain for use in DNA cell cycle analysis. The compound was excited by both lasers with emission in the far red and near-IR regions of the spectrum. […] Table 2 summarizes data for live Jurkat cells suspended in RPMI media+10% FBS treated with 5 μM Compound 9 (as a 5 mM DMSO or DI solution).
For orientation: A flow cytometer gives signals particle by particle.

In data set [2] the test system is Live Jurkat cells. The data set can be described thus: Evaluation of cell health after DNA staining, ImageStream imaging flow cytometer (Example 39). The format is cell-based. The conditions noted are these: 5 μM, 37° C., 30 min. An excerpt:
An ImageStream multispectral imaging flow cytometer is used to evaluate the live, apoptotic and mitotic rate of cycling Jurkat cells labeled with a compound of the invention (e.g., Compound 9 or a salt thereof). The platform produces high resolution brightfield, darkfield, and fluorescence images of cells prepared in suspension. IDEA analysis software I is used to quantify morphometric and photometric parameters for each cell based on the imaged collected. This technology combines the quantitative power of large sample sizes common to flow cytometry with the high information content present in microscopic images.
Live Jurkat cells are suspended at 5×10^5 cells/ml in each RPMI media with 10% FBS. The compound (in 5 mM DMSO) is added at a concentration of 5 μM and then the cells are incubated at 37° C. for 30 minutes while protected from light before acquiring on the ImageStream cytometer using 658 nm excitation and >660 nm emission. Apoptotic, mitotic, and interphase Jurkat cells are distinguished from each other using a combination of scatter, DNA intensity, and morphology-based parameters. Apoptotic cells with high laser scatter properties are gated on the Mean Pixel SSC histogram. Low scatter apoptotic events with low DNA content or textured nuclei are identified on the dye intensity versus bright detail intensity plot. […]

Data set [3] relates to Jurkat cells fixed in 70% cold ethanol. Put plainly: Staining of fixed cells, DNA content cell cycle by flow cytometry (Example 41). The format is cell-based, human. To be noted: 5 μM, PBS, room temperature 30 min. How it is done: Live Jurkat cells are fixed 70% cold ethanol and stored at −20° C. for one month. The cells are the washed in phosphate buffered saline (PBS) and resuspended in PBS at 5×10^5 cells/ml. Cells are labeled with a 5 μM solution of a compound according to the invention (e.g., Compound 9 or a salt thereof) at room temperature for 30 minutes and then run through two flow cytometers: A BD LSRII using 488 nm excitation and 695/40 nm emission and an Accuri C6 using 488 nm excitation and >670 nm emission, collecting 10,000 events at low flow rate. Markers are placed on the G0G1 and G2M peaks to look at % CV of the G0G1 peak and the ratio of G2M/G0G1.

Data set [4] concerns Live Jurkat cells. Put plainly: DNA staining of live cells, 15 minute incubation, MODFIT analysis (Example 47). The data set is classed as cell-based, human. The conditions noted are these: 1.25, 2.5, 5, 10 μM, 37° C. and room temperature, 15 min. The protocol: Live Jurkat cells are suspended at 5×10^5 cells/ml in RPMI media Compound 9 is added to each of one mL cell suspensions at final concentrations 1.25 μM, 2.5 μM, 5 μM, and 10 μM and then incubated at 37° C. and room temperature for 15 minutes while protected from light. Cells are run through the Becton Dickinson (BD) LSRII Flow Cytometer. Forward Scatter (FS) versus Side Scatter (SS) dual parameter plot is used to gate main cell population. Fluorescence is collected using two lasers: the 488 nm excitation laser with 695/40 bandpass emission filter, and using the 633 nm excitation laser with 695/40 bandpass emission filters, collecting 10,000 events at flow rate of ˜200 events/second. The data is further analyzed using MODFIT LT Flow Cytometry Modeling Software from Verity Software House, Inc. to look at ratio of G2/G1 and the % CV of G1 phase.

Data set [5] deals with U-2 OS cells (ATCC HTB-96). Put plainly: Imaging of cells stained with near-IR DNA stain (Example 48). The conditions noted are these: 20 μM, live, fixed or simultaneously fixed cells. The data set is classed as cell-based. How it is done:
Live U-2 OS cells (ATCC HTB-96) were treated with Compound 9 under various conditions and imaged with a 10×/0.3 objective on an ArrayScan VTI automated microscope platform (ThermoFisher/Cellomics). […] Such staining patterns have been routinely utilized in auto-focus and cell identification in automated microscopy. Cells were fixed with 3.7% formaldehyde (diluted from Sigma F1635) in the presence of 20 μM Compound 9 for 30 minutes at room temperature. The fixed cells were imaged and show similar prominent nuclear and dim cytosolic labeling (FIG. 4).

Setting [6] is: Accuri C6, 488 nm excitation, >670 nm.
[7] abbreviates: BD LSRII, 488 nm excitation, 695/40.

Consider `CN(C)CCNC(=O)CNc1ccc(O)c2c1C(=O)c1c(O)ccc(N)c1C2=O` [Compound 9], for which the G2/G1 ratio was found to be 1.89 in data set [1] (5 μM from 5 mM DI solution, 488 + 695/40); 1.85 in data set [1] (5 μM from 5 mM DI solution, 633 + 710/50); 1.88 in data set [1] (5 μM from 5 mM DMSO solution, 488 + 695/40); 1.85 in data set [1] (5 μM from 5 mM DMSO solution, 633 + 710/50). Also, the “% CV of G1-phase” value is less than 8% in data set [1] (5 μM, all samples and conditions, MODFIT); less than 8% in data set [4]. The “cells dead following incubation with the dye” value in data set [2] is 7.1%. Also, the “mitotic cells as share of the live cell population” value in data set [2] is given as 1.9%. Besides, the “% CV of the G0G1 peak” value is 5.9% in data set [3] (setting [6]) and 6.0% in data set [3] (setting [7]). Also, the “ratio of G2M/G0G1” value is listed as 1.85 in data set [3] (setting [6]) and 1.83 in data set [3] (setting [7]). For the same molecule, the “staining pattern” value in data set [5] is “prominent nuclear and relatively dim cytsolic staining”.
